Measured values from patent US20210363495A1, “CULTURE MEDIA FOR PLURIPOTENT STEM CELLS” (Yeda Research and Development Co. Ltd., priority 2019, published 2021).
pIC50: −log10 of the molar value.

How the values were obtained:
[1] = tested on: Tet-OFF-METTL3 hESCs (WIBR3, clone W3G4); assay: Pluripotency (OCT4+) maintenance of Tet-OFF-METTL3 hESCs in the presence of DOX; assay type: cell-based, human; conditions: individual small molecule supplemented to NHSM, Geltrex coated plates, no MEFs
Excerpt: FIGS. 1A-I Defining enhanced human naive conditions compatible with expanding METTL3 depleted PSCs. A. Strategy for generating human ESCs with TET-OFF regulated expression of METTL3 m^6A methyltransferase enzyme. B. Western blot analysis for correctly engineered human ESCs with TET-OFF METTL3 regulation, before and after DOX treatment. C. Representative images for human METTL3 TET-OFF engineered cells in different conditions with or without DOX addition. […] D. Scheme depicting strategy for conducting a screen for identifying a small molecule or cytokine additive to previously described human naïve NHSM conditions that allow maintain pluripotency in TET-OFF METTL3 human stem cells after adding DOX. E. W3G4 cells were maintained in the presence of DOX for up to 4 passages in different conditions and stained for OCT4 to quantify percentage of cells that retained their pluripotency. […] F. OCT4+ pluripotency maintenance in NHSM conditions supplemented with various TNK inhibitors and DOX to repress METTL3 expression. G. Quantification of ΔPE-OCT4-GFP knock in naïve pluripotency reporter, in variety of primed (red) and naïve conditions (blue). Mean fluorescence intensity values (MFI) are indicated. H. Quantification of ΔPE-OCT4-GFP knock in naïve pluripotency reporter in variety of conditions with various concentrations of ACTIVIN A recombinant cytokine. […] I. Representative phase contrast images in human ESCs expanded in NHSM+TNKi conditions showing their maintenance of pluripotent domed-like morphology even in the presence of FGFRi.
In order to identify culture conditions which capture human naïve PSC, the present inventors looked for agents which are capable of maintaining stem cells in a pluripotent state in the absence of defined epigenetic repressors. Human knock-in WIBR3 hESC lines with conditional inducible ablation expression of METTL3 were engineered (FIG. 1A). This was carried out by introducing an exogenous METTL3 transgene under the regulation of Tet-OFF promoter (Liao et al., 2015), followed by CRISPR/Cas9 mediated ablation of both endogenous human METTL3 alleles. Two resultant clones were validated for METTL3 expression only from the exogenous allele, which can be shut off by addition of DOX to the media (called Tet-OFF-METTL3 lines) (FIG. 1B).
The latter further support rewiring toward naïve pluripotency in NHSM conditions. […] Candidate molecules were tested for the ability to enrich NHSM conditions that allow Tet-OFF-METTL3 to be maintained on Geltrex coated plates in the presence of DOX.
NHSM conditions were supplemented with individual small molecules (FIG. 1D). […] IWR1 is a WNT inhibitor (WNTi) small molecule that stabilizes AXIN protein in the cytoplasm by inhibiting Tankyrase enzyme (abbreviated herein as TNK inhibitor—TNKi).

[2] = tested on: WIBR3 hESC line carrying ΔPE-OCT4-GFP reporter; assay: ΔPE-OCT4-GFP knock in naïve pluripotency reporter quantification; assay type: cell-based, human
Excerpt: (§1) FIGS. 2A-I. Optimizations for enhanced human naive pluripotency conditions. A. W3G4 METTL3 TET-OFF cells were maintained in the presence of DOX for up to 4 passages in different conditions and stained for OCT4 to quantify percentage of cells that retained their pluripotency. […] B. Quantification of ΔPE-OCT4-GFP knock in naïve pluripotency reporter, in variety of primed (red) and naïve conditions (blue). Mean fluorescence intensity values (MFI) are indicated. […] C. Quantification of ΔPE-OCT4-GFP knock in naïve pluripotency reporter, in optimized naïve conditions and various concentrations of GSK3 inhibitor that leads to WNT activation (CHIR99021 is used as GSK3 inhibitor and is abbreviated as CHIR). […] D. Phase images showing how supplementation of 0.2% Geltrex (Life Technologies) in the growth media and SRCi additively enhance domed like morphology of human naïve PSCs in ENHSM conditions optimized herein. E. RT-PCR analysis for naïve pluripotency markers in ENHSM conditions with and without P38i/JNKi (BIRB0796). Values were normalized to ACTIN and values in Primed conditions were set as 1. […] F. W3G4 METTL3 TET-OFF cells were maintained in the presence of DOX for up to 4 passages in the optimized ENHSM conditions but without TNKi, in order to see if other molecules can substitute for TNKi after all optimizations were applies (e.g. adding of Geltrex, concentration optimization). […]

primed human PSCs = assay: Single cell cloning efficiency; assay type: cell-based; conditions: primed cells, ROCK inhibitor used
human naïve PSCs [3] = assay: RT-PCR analysis for naïve pluripotency markers; assay type: cell-based; conditions: ENHSM with and without P38i/JNKi, normalized to ACTIN, primed set as 1
Excerpt: as §1

human naïve PSCs [4] = assay: Pluripotency maintenance of naïve cells in ENHSM supplemented with CHIR; assay type: cell-based; conditions: ENHSM plus CHIR; TGFB inhibition, depleted DNA and RNA methylation or no L-Glutamine
Excerpt: The present inventors next aimed to define the signaling pathway downstream of Tankyrase inhibition facilitating human naïve PSCs stabilization. Bcat-KO ESCs had higher levels of Oct4-GFP in ENHSM condition, and upon removal of XAV939 GFP level was not decreased in KO, but in WT ESCs. A similar trend was shown in RT-PCR analysis. Supplementing naïve cells with WNT stimulator compromised delta-PE-OCT4-GFP levels, compromised their domed shape like morphology and their transcriptional profile. Using a tamoxifen induced Beta-Catenin-ERT transgene, the present inventors noted that delta-PE-OCT4-GFP signal and domed morphology were compromised upon tamoxifen stimulation. […] Similarly, while KO of TCF3 boosts mouse naïve pluripotency and alleviates the need for WNT stimulation, TCF3 KO ESCs still required WNTi and/or SRCi to maintain their naïve identity in humans. […] Collectively, these findings clearly establish WNT as a priming agent for human, but not mouse, naïve pluripotency and establish that KO of beta-catenin can substitute for Tankyrase inhibition.

PKCζ = target: T1, PKCζ (Homo sapiens, UniProt Q05513); conditions: cited from earlier work
T1 sequence (Q05513 1-592): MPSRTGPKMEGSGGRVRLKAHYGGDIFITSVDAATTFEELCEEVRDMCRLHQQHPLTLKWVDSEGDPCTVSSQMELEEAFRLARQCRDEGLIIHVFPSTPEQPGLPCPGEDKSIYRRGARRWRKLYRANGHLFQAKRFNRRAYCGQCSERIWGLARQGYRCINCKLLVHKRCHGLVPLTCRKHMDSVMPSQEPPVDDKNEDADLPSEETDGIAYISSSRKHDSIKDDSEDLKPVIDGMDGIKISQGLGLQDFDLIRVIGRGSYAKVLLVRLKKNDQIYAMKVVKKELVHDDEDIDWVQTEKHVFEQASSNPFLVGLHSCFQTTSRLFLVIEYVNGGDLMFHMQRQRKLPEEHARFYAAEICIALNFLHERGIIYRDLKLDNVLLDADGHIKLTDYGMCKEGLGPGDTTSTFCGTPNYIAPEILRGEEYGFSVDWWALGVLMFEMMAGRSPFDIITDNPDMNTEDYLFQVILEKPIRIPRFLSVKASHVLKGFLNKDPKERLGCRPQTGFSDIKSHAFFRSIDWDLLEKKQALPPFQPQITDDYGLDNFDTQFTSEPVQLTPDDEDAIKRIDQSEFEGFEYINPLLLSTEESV

PKCγ [5] = conditions: fourth value of the list; read-out: IC50 PKCγ (second mention); cited from earlier work
PKCμ = target: T2, PKCμ (Homo sapiens, UniProt Q15139); conditions: cited from earlier work
T2 sequence (Q15139 1-912): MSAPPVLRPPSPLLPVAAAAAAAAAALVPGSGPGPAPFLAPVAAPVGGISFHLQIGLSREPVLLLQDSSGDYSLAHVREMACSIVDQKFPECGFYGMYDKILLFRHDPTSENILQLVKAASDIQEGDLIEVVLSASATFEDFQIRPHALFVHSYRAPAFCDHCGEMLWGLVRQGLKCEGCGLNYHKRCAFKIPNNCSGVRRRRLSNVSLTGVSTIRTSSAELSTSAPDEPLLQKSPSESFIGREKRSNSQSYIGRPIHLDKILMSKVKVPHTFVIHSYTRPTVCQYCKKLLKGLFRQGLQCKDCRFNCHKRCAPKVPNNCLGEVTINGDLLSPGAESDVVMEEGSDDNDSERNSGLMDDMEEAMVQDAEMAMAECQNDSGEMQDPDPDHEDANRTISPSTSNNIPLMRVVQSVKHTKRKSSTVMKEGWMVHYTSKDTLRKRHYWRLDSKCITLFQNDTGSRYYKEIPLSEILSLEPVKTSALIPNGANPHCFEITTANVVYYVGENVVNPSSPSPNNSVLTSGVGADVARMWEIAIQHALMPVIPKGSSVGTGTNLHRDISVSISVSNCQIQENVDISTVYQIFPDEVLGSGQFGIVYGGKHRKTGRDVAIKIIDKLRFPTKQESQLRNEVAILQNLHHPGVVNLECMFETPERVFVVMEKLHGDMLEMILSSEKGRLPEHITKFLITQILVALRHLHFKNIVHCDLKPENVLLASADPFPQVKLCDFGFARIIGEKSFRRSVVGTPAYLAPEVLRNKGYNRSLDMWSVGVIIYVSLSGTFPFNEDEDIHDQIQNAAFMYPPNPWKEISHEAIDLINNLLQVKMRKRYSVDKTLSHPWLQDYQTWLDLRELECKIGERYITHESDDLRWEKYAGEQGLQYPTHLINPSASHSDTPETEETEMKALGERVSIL

PKCα = PKCα (Homo sapiens, UniProt P17252); conditions: cited from earlier work
PKCβ = PKCβ (Homo sapiens, UniProt P05771); conditions: cited from earlier work
PKCγ [6] = target: PKCγ (Homo sapiens, UniProt P05129); conditions: third value of the list; cited from earlier work

PKCβ, sequence (P05771 whole entry, species assumed): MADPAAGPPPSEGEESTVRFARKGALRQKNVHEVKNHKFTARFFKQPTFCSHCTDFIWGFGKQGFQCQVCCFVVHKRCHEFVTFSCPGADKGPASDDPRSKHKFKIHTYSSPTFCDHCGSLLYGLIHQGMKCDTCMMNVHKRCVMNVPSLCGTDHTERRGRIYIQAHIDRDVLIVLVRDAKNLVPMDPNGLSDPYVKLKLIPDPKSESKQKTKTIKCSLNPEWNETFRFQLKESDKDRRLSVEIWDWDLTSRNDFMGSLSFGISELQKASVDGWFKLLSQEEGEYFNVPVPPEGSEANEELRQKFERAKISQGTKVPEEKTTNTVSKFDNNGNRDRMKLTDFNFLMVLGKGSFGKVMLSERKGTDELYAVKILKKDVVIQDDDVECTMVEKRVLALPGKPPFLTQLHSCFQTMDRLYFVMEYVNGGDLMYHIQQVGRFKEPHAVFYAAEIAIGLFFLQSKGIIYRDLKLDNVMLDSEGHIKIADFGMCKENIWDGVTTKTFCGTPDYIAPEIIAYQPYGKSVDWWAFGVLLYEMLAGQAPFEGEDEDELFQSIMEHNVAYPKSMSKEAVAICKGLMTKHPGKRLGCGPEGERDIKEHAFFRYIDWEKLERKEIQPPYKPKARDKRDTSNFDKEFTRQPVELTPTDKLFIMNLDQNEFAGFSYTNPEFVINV

O=C(Nc1cccc2cccnc12)c1ccc(N2C(=O)[C@@H]3[C@H](C2=O)[C@@H]2C=C[C@H]3C2)cc1 [IWR1]
expansion of Tet-OFF-METTL3 on DOX [1]: enabled the expansion of Tet-OFF-METTL3 on DOX with great homogeneity
ΔPE-OCT4-GFP expression ([2]; TNKi supplemented to NHSM conditions): boosts expression of GFP

C[C@@H](N)[C@H]1CC[C@H](C(=O)Nc2ccncc2)CC1 [Condition Y27632]
single cell cloning (primed human PSCs): 10-20%

Cc1ccc(-n2nc(C(C)(C)C)cc2NC(=O)Nc2ccc(OCCN3CCOCC3)c3ccccc23)cc1 [BIRB0796]
naïve pluripotency marker expression (human naïve PSCs [3]): boosts expression of naïve pluripotency markers

Cc1c[nH]c(-c2cnc(NCCNc3ccc(C#N)cn3)nc2-c2ccc(Cl)cc2Cl)n1 [CHIR99021]
ΔPE-OCT4-GFP intensity ([2]; optimized naïve conditions, various concentrations of GSK3 inhibitor): negatively influences human naive pluripotency
ability to maintain pluripotency (human naïve PSCs [4]): compromised their ability to maintain pluripotency

COc1ccc2c(c1)c(C1=C(c3c[nH]c4ccccc34)C(=O)NC1=O)cn2CCCN(C)C [Go6983]
pIC50 (PKCζ): 7.22
pIC50 (PKCγ [5]): 8.00
pIC50 (PKCμ): 4.70
pIC50 (PKCα): 8.15
pIC50 (PKCβ): 8.15
pIC50 (PKCγ [6]): 8.22
